Measured values from patent publication US20070059242A1, “METHODS TO IDENTIFY THERAPEUTIC AGENTS” (priority 2005, published 2007).

Legend:
J774A.1 macrophages = assay: Uptake and localization in macrophages by fluorescence microscopy; format: cell-based, murine; conditions: 50 μM dansyl derivative, 5 min to 1 h; not complexed with LDL
Description: J774A.1 cells were plated in 8-well chambered slides (Nalge Nunc International). Cells were gently washed twice with PBS, pH 7.4 before 5 min or 1 h exposure to 50 μM dansyl derivative of cholesterol ozonation product 5d or 5e, dansyl cholesterol derivative 9c or 9d, or dansyl hydrazine diluted in media without FCS (0.05% v/v final DMSO concentration). [drawing 28] Media was removed by aspiration and cells were fixed immediately in 95% ice cold methanol for 5 min. Cells were mounted in glycerol containing Antifade reagent (Molecular Probes). Fluorescence images were documented using DeltaVision Deconvolution microscope (API, Issaquah WA) equipped with a Photometrics CH350L liquid cooled CCD camera attached to an Olympus IX—70 inverted microscope. […] All images were deconvolved using constrained iterative algorithms (10 iterations) of DeltaVision software (softWoRx, v2.5). The deconvolved images were subsequently processed using softWoRx, v2.5.
In some experiments, murine macrophage RAW 264.7 (ECACC 91062702) cells were grown in RPMI (Gibco) with 10% FCS at 37° C. with 5% CO2. For fluorescence imaging, cells were incubated on cover slips in 6-well chambered plates (Costar) for 12 h, gently washed 3 times in PBS at pH 7.4, and incubated with 50 μM dansyl derivative of cholesterol ozonation product 5d or 5e, dansyl cholesterol derivative 9c or 9d, in RPMI with 10% FCS for 5, 15, 30, and 60 min. A solution of the dansyl derivative was then added in DMSO [final DMSO, 0.05% (v/v)]. Media was removed by aspiration, and cells were washed twice with PBS, followed by fixing in paraformaldehyde (3.7% in PBS) for 10 min. Cover slips were mounted in MOWIOL 4-88 (Calbiochem). Microscopy was performed using an inverted Zeiss Axioscope 2 Plus fluorescence microscope, and images were obtained with a Zeiss Axiocam digital camera using Axiovision software (version 3.1). The data were collected using a 63× oil immersion lens and DAPI filter (excitation 360/emission 460), and images were processed with Axiovision software and Adobe software (Photoshop 6.0).

CD36 = assay: Scavenger receptor expression by flow cytometry, CD36; format: cell-based, murine
Description: Cell surface CD36 and SR-A were measured by flow cytometry using CD36 (BD Biosciences Pharmingen, San Diego, Calif.) and CD204 (Serotec, Oxford, UK) specific monoclonal antibodies. See Liao et al. (2000) Arterioscler. Thromb. Vasc. Biol. 20: 1968-75; Hu et al. (1996) Blood 87: 2020-28. Murine macrophage J774A.1 cells were serum-starved overnight in media with 0.5% BSA. Cells (1×10^6) treated with cholesterol ozonation products or cholesterol ozonation product complexed with LDL for specified times were then washed twice with PBS. After harvesting the cells by scraping, they were fixed with 6% paraformaldehyde for 20 min. Cells were then resuspended in PBS containing 2% heat-inactivated FCS, 0.05% NaN3 and appropriate primary antibody, antibody conjugate or isotype control (1:100 dilution) and incubated on ice for 30 min. Expression of either CD36 or SR-A was determined with CD36 (BD Biosciences Pharmingen, San Diego, Calif.) and CD204 (Serotec, Oxford, U.K.) specific monoclonal antibodies, respectively. After washing off the primary antibody, secondary antibodies were added, cells were washed again, then analyzed on a FACS calibur 2 (Becton Dickinson, Sparks, Md.) flow cytometer and analyzed by CellQuant software. Results were expressed as mean fluorescence intensity±standard error of the mean (SEM) of at least duplicate determinations. Significance was determined using a student two-tail t test, with (*) indicating p<0.05, and (**) indicating p<0.01 versus the control.

E-selectin = assay: Endothelial adhesion molecule expression ELISA, E-selectin; format: cell-based, human; conditions: for upregulation of E-selectin expression relative to vehicle control: HAAE-1, 4 h, 25 μM in the presence of LDL (100 μg/mL protein), or lipoprotein alone; for selectin (E-selectin) expression: HAAE-1, not complexed with LDL
Description: (§1) Endothelial cell surface adhesion molecule expression was measured by ELISA, using anti-human CD54 (ICAM-1), CD106 (VCAM-1) and CD62E (E-Selectin) antibodies (Leinco Technologies, Inc., St. Louis, Mo.). The ELISA method was modified from previously described procedures.
(§2) Cells were then incubated with antibodies to VCAM-1, E-selectin, or ICAM-1 diluted 1:400 in PBS containing 5% FCS at 37° C. for 30 min. Wells were washed two times with PBS, then incubated with horseradish peroxidase (HRP)-conjugated goat anti-mouse IgG (Southern Biotechnology Associates, Birmingham, Ala., USA) in PBS/5% FCS at 37° C. for 30 min. The wells were washed four times with PBS, then incubated with H2O2/3,3′,5,5′-tetramethyl-benzidine peroxidase substrate (Pierce Chemical, Rockford, Ill., USA) for 30 min in the dark. The reaction was stopped by adding 25 μl of 8 N H2SO4, and the plates read on a microplate reader, blanking on wells stained with only secondary antibody. Each assay was performed in triplicate and the data are reported as the mean±SEM as a percentage of the expression level of the vehicle. To study the effect of cholesterol ozonation product 5a concentration (5-50 μM) on E-selectin expression, the assay was performed in an identical fashion as described above, with each point being the mean±SEM of at least duplicate measurements.

ICAM-1 = assay: Endothelial adhesion molecule expression ELISA, ICAM-1; format: cell-based, human; conditions: for integrin (ICAM-1) expression: HAAE-1, not complexed with LDL
Description: as §1, §2

[1] = Aldolization of ketoaldehyde 4a with amino acids (1H NMR); format: physicochemical
Description: Aldolization of ketoaldehyde 4a with amino acids. […] To this solution was added 1 equivalent of either: a) L-proline, b) glycine, c) L-lysine hydrochloride or d) L-lysine ethyl ester dihydrochloride. At time points the samples were analyzed by ^1H NMR.

[2] = Aldolization of 4a with atherosclerotic artery and blood fractions (1H NMR); format: in vitro ADME, human
Description: Aldolization of secoketoaldehyde 4a with atherosclerotic artery and blood fractions. […] To this solution was added either a) atherosclerotic artery (2.1 mg) that had been homogenized in PBS (1 ml) in a tissue homogenizer and then lyophilized to dryness, b) lyophilized human blood (1 ml), c) lyophilized human plasma (1 ml) or d) PBS lyophilized (1 ml). At time points samples were removed and analyzed by ^1H NMR vide supra.

[3] = J774A.1, 25 μM complexed with LDL (100 μg/ml protein), 6 h
[4] = cultured macrophages, in the absence of LDL

SMILES | uptake and localization in macrophages (J774A.1 macrophages) | CD36 expression (CD36; [3]) | CD36 expression (CD36; [4]) | E-selectin levels (E-selectin; HAAE-1, 1.25 μM complexed with LDL) | E-selectin levels (E-selectin; HAAE-1, 50 μM complexed with LDL) | upregulation of E-selectin expression relative to vehicle control (E-selectin) | selectin (E-selectin) expression (E-selectin) | ICAM-1 levels (ICAM-1; HAAE-1, 25 μM in the presence of LDL, or lipoprotein alone) | integrin (ICAM-1) expression (ICAM-1) | aldolization of 4a ([1]; DMSO-d6 (800 μl) and D2O (80 μl) alone) | conversion of 4a into 5a ([1]; Gly, 24 h) | conversion of 4a into 5a ([1]; L-Lys(OEt).2HCl, 100 h) | conversion of 4a into 5a ([1]; L-Lys.HCl, 24 h) | conversion of 4a into 5a ([1]; L-Pro, 2 h) | conversion of 4a into 5a ([2]; extracts from atheromatous arteries, 22 h) | aldolization of 4a ([2]; lyophilized PBS) | conversion of 4a into 5a ([2]; plasma, 15 h) | conversion of 4a into 5a ([2]; serum, 15 h) | conversion of 4a into 5a ([2]; whole blood, 15 h)
CC(C)CCC[C@@H](C)[C@H]1CCC2C(CC=O)C([C@@]3(C)CC[C@H](O)CC3=O)CC[C@@]21C (stereo partly drawn) [4a, 3β-Hydroxy-5-oxo-5,6-secocholestan-6-al] | efficiently taken up by macrophages | little or no effect | did not increase expression | 2 fold | about 8 fold | greater than 4 fold | no effects | remain unchanged | no effects | no aldolization | complete conversion | 62% | complete conversion | complete conversion | complete conversion | no aldolization | complete conversion | complete conversion | complete conversion
CC(C)CCC[C@@H](C)[C@H]1CCC2C3C(CC[C@@]21C)[C@@]1(C)CC[C@H](O)C[C@@]1(O)[C@@H]3C=O (stereo partly drawn) [5a, 3β-Hydroxy-5β-hydroxy-B-norcholestane-6β-carboxaldehyde] | efficiently taken up by macrophages | little or no effect | did not increase expression | – | – | 1.8 fold | no effects | – | no effects | – | – | – | – | – | – | – | – | – | –
